Legend:
CDK1, CDK2 and WEE1 mRNA = assay: qRT-PCR of CDK1, CDK2 and WEE1; assay type: cell-based; settings: MCF-7 and MDA-MB-453; overnight
Description: Real-time quantitative PCR analyses were performed using the ABI PRISM 7900HT Sequence Detection System (Applied Biosystems) as described earlier. Briefly, the PCR was carried out with SYBR Green PCR Master Mix (Applied Biosystems) using 2 µl of cDNA (or ChIP DNA) and the primers in a 20 µl final reaction mixture. Dissociation curves were generated for each plate to verify the integrity of the primers. Data were analyzed using SDS software version 2.2.2 and exported into an Excel spreadsheet. The 18S or Actin data were used for normalizing the gene values. The sequences for the primers are in Supplementary Table 12.
Supplementary Figure S9: Effect of ACK1 inhibition on CDKs and WEE1.
RNA from breast cancer cells treated with vehicle or varying concentrations of (R)-9b overnight were subjected to qRT-PCR using CDK1, CDK2 and WEE1 primers. 18S rRNA was used as housekeeping control. Data are represented as the mean ± SEM from 2 biologically independent experiments. *p<0.05, **p<0.01, ***p<0.001, unpaired two-tailed Student’s t-test.

[1] = test system: pY88-H4 marks in CXCR4 promoter region; assay: ChIP-qPCR with pY88-H4 antibody for CXCR4 gene; assay type: cell-based; settings: breast cancer cells
Description: Fig. 7 ACK1 inhibitor overcomes palbociclib-resistant breast cancer growth and metastasis. A 3 × 10^6 MDA-MB-468 cells were injected in the 4th inguinal mammary fat pad of female SCID mice. Once the tumors were palpable, the mice were treated with either vehicle (Captisol; n = 7), Palbociclib at 80 mg/kg (n = 6), or (R)-9b at 36 mg/Kg (n = 6) orally. In addition, mice were injected with (R)-9b at 24 mg/Kg (n = 7) subcutaneously. Mice were treated five times a week, for 22 days. B, C The tumors were harvested and photographed, and the weights were recorded. D Vehicle or (R)-9b treated breast cancer cells were subjected to ChIP using pY88-H4 antibody, followed by qPCR for CXCR4 gene. […] H Graphical quantitation of lung metastatic deposit. […] The metastases were assessed using IVIS. […] For (A, C–F, I), p values were calculated using unpaired two-tailed Student’s t test.
Cell pellets were resuspended in RLB buffer and sonicated and the soluble chromatin was incubated with antibodies and Protein-G/A magnetic beads. […] The size and quality of the library was evaluated using the Agilent BioAnalyzer (Agilent Technologies, Inc., Santa Clara, CA), and the library was quantitated with the Kapa Library Quantification Kit. Each enriched DNA library was then sequenced on an Illumina NextSeq 500 sequencer to generate 40–50 million 75-base paired-end reads (Illumina, Inc., San Diego, CA). […]

breast cancer cell lines = assay: cell cycle analysis, propidium iodide flow cytometry; assay type: cell-based; settings: 48 h
Description: (§1) A–F Breast cancer cells were treated with either vehicle or (R)-9b for 48 h; cells were harvested and processed for cell cycle analysis using propidium iodide staining, followed by flow cytometry. G BT549 and H MDA-MB-468 cells were treated with varying drug concentrations of palbociclib or (R)-9b for 96 h and the cell viability assessed using trypan blue exclusion method. I BT549, and J MDA-MB-468 cells were treated with 1 µM palbociclib or (R)-9b for 48 h and subjected to cell cycle analysis using propidium iodide staining, followed by flow-cytometry. Palbociclib-resistant MDA-MB-231 (K) and HCC-1395 (L) were generated and treated with varying drug concentrations of palbociclib or (R)-9b for 96 h and the cell viability assessed using trypan blue exclusion method.
(§2) For proliferation assay, 5 × 10^4 cells were plated in 6-well plate and treated with either vehicle (DMSO) or varying concentrations of (R)-9b or palbociclib in complete media for 96 h and number of viable cells were counted by trypan blue exclusion assay. Breast cancer cell lines were treated with vehicle or varying concentrations of (R)-9b for 72 h. The cells were harvested, washed 2 times with PBS and incubated with 3 ul of Annexin V-FITC antibody according to the manufacturers protocol (BD Biosciences). Five µl Propidium iodide was used to stain necrotic cells. The cells were acquired using the BD FACSCalibur machine (BD Biosciences) and data was analyzed using FlowJo software. Cell cycle analysis was performed as mentioned earlier. Briefly, vehicle or (R)-9b (48 h) treated cells were harvested by trypsinization, washed 2 times with PBS, and fixed using chilled 70% Ethanol for 1 h, followed by 2 washes with PBS. The cell pellets were treated with 50 µl RNase A (100 µg/ml; Sigma) for 15 min at 37 °C and Propidium Iodide (PI; 50 µg/ml, Sigma) was added to these cells, followed by acquisition using BD FACS Canto-II or FACSCalibur machines. The data were analyzed using FlowJo software.

[2] = test system: normal breast cells, MCF10a; assay: as above; assay type: cell-based; settings: 48 h
Description: as §1, §2

ACK1 = ACK1 (Homo sapiens, UniProt Q07912); assay: biochemical; settings: 1 uM ATP; read-out: Compound IC50 (M) ACK1
Chain of ACK1 (Q07912 whole entry): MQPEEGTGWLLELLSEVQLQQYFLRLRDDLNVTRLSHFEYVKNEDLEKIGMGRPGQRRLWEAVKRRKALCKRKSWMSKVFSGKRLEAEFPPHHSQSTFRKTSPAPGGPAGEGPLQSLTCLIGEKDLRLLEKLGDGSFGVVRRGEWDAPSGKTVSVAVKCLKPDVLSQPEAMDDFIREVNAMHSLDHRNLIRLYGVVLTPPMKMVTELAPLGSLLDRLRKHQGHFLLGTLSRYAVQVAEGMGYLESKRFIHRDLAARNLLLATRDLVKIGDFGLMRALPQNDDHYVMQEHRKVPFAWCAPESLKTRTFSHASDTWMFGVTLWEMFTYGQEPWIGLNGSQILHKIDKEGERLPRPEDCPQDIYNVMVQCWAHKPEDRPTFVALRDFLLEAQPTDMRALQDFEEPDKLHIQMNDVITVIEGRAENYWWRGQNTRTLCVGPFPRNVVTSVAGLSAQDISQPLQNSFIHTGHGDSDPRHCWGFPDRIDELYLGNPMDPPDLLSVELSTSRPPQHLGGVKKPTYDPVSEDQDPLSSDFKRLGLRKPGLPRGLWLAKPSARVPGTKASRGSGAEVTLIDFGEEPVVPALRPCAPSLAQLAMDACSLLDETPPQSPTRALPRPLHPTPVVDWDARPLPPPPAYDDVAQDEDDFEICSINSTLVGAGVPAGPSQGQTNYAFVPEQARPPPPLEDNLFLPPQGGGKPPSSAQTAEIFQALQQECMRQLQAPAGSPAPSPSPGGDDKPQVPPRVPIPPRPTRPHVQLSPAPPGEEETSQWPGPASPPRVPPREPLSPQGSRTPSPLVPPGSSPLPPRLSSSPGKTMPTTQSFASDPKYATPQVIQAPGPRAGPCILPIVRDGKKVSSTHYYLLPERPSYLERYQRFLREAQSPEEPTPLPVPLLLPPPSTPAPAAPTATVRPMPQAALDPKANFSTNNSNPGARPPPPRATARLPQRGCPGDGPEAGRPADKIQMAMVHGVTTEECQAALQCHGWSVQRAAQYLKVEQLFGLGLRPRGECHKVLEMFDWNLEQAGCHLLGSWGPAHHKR

SMILES: CN1CCN(c2ccc(Nc3ncc(Cl)c(NC[C@H]4CCCO4)n3)cc2)CC1 [(R)-9b]
- CDK1 and 2, and WEE1 expression (CDK1, CDK2 and WEE1 mRNA): affected
- pY88-H4 epigenetic marks in CXCR4 promoter region [1]: erased these marks
- cell cycle effect (breast cancer cell lines; MDA-MB-453, MCF7, HCC-1395, SKBR3 and T47D): arrest in G2/M phase
- cell cycle effect (breast cancer cell lines; palbociclib-resistant BT549 and MDA-MB-468 cells, 1 µM): G2/M cell cycle arrest
- cell cycle effect [2]: no G2/M arrest
- IC50 (ACK1): 1.25e-08 M

From publication PMC10348910, “Epigenetic reprogramming of cell cycle genes by ACK1 promotes breast cancer resistance to CDK4/6 inhibitor” (Oncogene, 2023)
